In brackets after ≈: the same amount, converted by molar mass.
Assays:
Assay type in all cases: cell-based
Bacillus subtilis [1] = assay: Biofilm inhibition, crystal violet method
Klebsiella pneumonia [2] = assay: Bacterial lipid peroxidation; conditions: treated at the MIC level
Staphylococcus aureus [3] = assay: Bacterial lipid peroxidation; conditions: treated at the MIC level
Bacillus subtilis [4] = assay: Bacterial lipid peroxidation; conditions: treated at the MIC level
Staphylococcus aureus [5] = assay: MIC, broth microdilution
Staphylococcus aureus [6] = assay: Biofilm inhibition, crystal violet method
Candida albicans = assay: MIC, broth microdilution
Klebsiella pneumonia [7] = assay: Biofilm inhibition, crystal violet method
Pseudomonas aeruginosa [8] = assay: Biofilm inhibition, crystal violet method
Pseudomonas aeruginosa [9] = assay: Bacterial lipid peroxidation; conditions: treated at the MIC level
Bacillus subtilis [10] = assay: MIC, broth microdilution
Klebsiella pneumonia [11] = assay: MIC, broth microdilution; conditions: Klebsiella pneumoniae
Salmonella typhimurium [12] = assay: Biofilm inhibition, crystal violet method
Salmonella typhimurium [13] = assay: Bacterial lipid peroxidation; conditions: treated at the MIC level
Pseudomonas aeruginosa [14] = assay: MIC, broth microdilution

Efficacy (MIC) relative to Sulfadiazine (Staphylococcus aureus [5]) [fold] | MIC (Staphylococcus aureus [5]) [µg/mL] | MIC (Candida albicans) [µg/mL] | MIC (Bacillus subtilis [10]) [µg/mL] | MIC (Klebsiella pneumonia [11]) [µg/mL] | MIC (Pseudomonas aeruginosa [14]) [µg/mL] | SMILES | Biofilm inhibition (Bacillus subtilis [1]) [%] | Lipid peroxidation efficiency (Klebsiella pneumonia [2]) [%] | Lipid peroxidation efficiency (Staphylococcus aureus [3]) [%] | Lipid peroxidation efficiency (Bacillus subtilis [4]) [%] | Biofilm inhibition (Staphylococcus aureus [6]) [%] | Biofilm inhibition (Klebsiella pneumonia [7]) [%] | Biofilm inhibition (Pseudomonas aeruginosa [8]) [%] | Lipid peroxidation efficiency (Pseudomonas aeruginosa [9]) [%] | Biofilm inhibition (Salmonella typhimurium [12]) [%] | Lipid peroxidation efficiency (Salmonella typhimurium [13]) [%]
2 | 11.3 ± 2.38 | 9 ± 3.17 | 48 ± 2.25 | 99 ± 5.02 | 96 ± 4.83 | COc1ccc(C=NNC(=O)CSc2nc3c(C)cccc3c(=O)n2-c2ccccc2)cc1OS(C)(=O)=O [5g, 2-Methoxy-5-((2-(2-((8-methyl-4-oxo-3-phenyl-3,4-dihydroquinazolin-2-yl)thio)-acetyl)hydrazono)methyl)phenyl methanesulfonate] | 45.1 ± 2.72 | 285.2 ± 1.44 | 118.4 ± 2.26 | 219.7 ± 2.71 | 34.7 ± 4.02 | 32.8 ± 1.92 | 20.1 ± 2.32 | 175.2 ± 3.29 | 33.9 ± 2.94 | 210.4 ± 4.66
– | 24 ± 3.92 (≈ 95.9 µM) | 72 ± 3.44 (≈ 288 µM) | 46 ± 4.18 (≈ 184 µM) | 47 ± 3.18 (≈ 188 µM) | 70 ± 4.99 (≈ 280 µM) | Nc1ccc(S(=O)(=O)Nc2ncccn2)cc1 [Sulfadiazine, reference compound] | – | – | – | – | – | – | – | – | – | –
– | 52 ± 0.28 | 10 ± 2.55 | 49 ± 2.77 | 44 ± 1.88 | 97 ± 3.88 | CCS(=O)(=O)Oc1ccc(C=NNC(=O)CSc2nc3ccc(Cl)cc3c(=O)n2-c2ccccc2)cc1 [5k, 4-((2-(2-((6-Chloro-4-oxo-3-phenyl-3,4-dihydroquinazolin-2-yl)thio)acetyl)-hydrazono)methyl)phenyl ethanesulfonate] | 63.7 ± 0.92 | 295.2 ± 1.89 | 202.2 ± 2.17 | 377.6 ± 3.44 | 42.9 ± 2.62 | 53.1 ± 2.12 | 38.7 ± 3.66 | 181.3 ± 6.06 | 61.9 ± 1.72 | 278.3 ± 5.07
– | 50 ± 0.88 (≈ 86.1 µM) | 48 ± 4.18 (≈ 82.7 µM) | 23 ± 2.21 (≈ 39.6 µM) | 22 ± 4.72 (≈ 37.9 µM) | 45 ± 6.11 (≈ 77.5 µM) | CCCS(=O)(=O)Oc1ccc(C=NNC(=O)CSc2nc3c(C)cccc3c(=O)n2-c2ccccc2)cc1OC [5f, 2-Methoxy-4-((2-(2-((8-methyl-4-oxo-3-phenyl-3,4-dihydroquinazolin-2-yl)thio)-acetyl)hydrazono)methyl)phenyl propane-1-sulfonate] | 56.4 ± 3.12 | 230.4 ± 2.12 | 151.2 ± 1.92 | 212.5 ± 5.52 | 45.1 ± 1.62 | 59.6 ± 2.22 | 34.8 ± 4.07 | 140.4 ± 5.02 | 37.4 ± 1.82 | 273.1 ± 4.33
– | – | – | – | – | – | O=C(O)c1cn(C2CC2)c2cc(N3CCNCC3)c(F)cc2c1=O [Ciprofloxacin, reference compound] | 49.2 ± 1.16 | 327.4 ± 4.42 | 319.8 ± 3.26 | 417.7 ± 2.83 | 30.9 ± 4.52 | 40.8 ± 3.88 | 45.2 ± 1.18 | 346.3 ± 2.62 | 58.3 ± 4.02 | 294.8 ± 1.99

Reference: PMC11726445 (RSC Advances, 2025)
